Experimental data taken from patent US20250170097A1, “CATHEPSIN INHIBITORS AND USE THEREOF IN A METHOD FOR DETECTING AND TREATING RESISTANCE TO IMMUNOTHERAPY” (YISSUM RESEARCH DEVELOPMENT COMPANY OF THE HEBREW …, priority 2022, published 2025).

Legend:
[1] = tested on: OCI-Ly19 DLBCL cells; assay: Lymphoma cell death assay (caspase-3 activation, annexin V staining); format: cell-based
Method: OCI-Ly19 DLBCL cells were treated with GB111-NH2 for 1 hour and the cells were evaluated for caspase-3 activation and annexin V staining as indications for apoptosis.
Caspase-3 activation was assessed through the evaluation of caspase-3 enzyme activity (100 ng of protein) with the substrate Ac-DEVD-pNA (N-acetyl-Asp-Glu-Val-Asp-p-nitroaniline) in a colorimetric assay 24 hours post treatment.

[2] = tested on: NF-κB reporter in OCI-Ly19 cells; assay: NF-κB signaling assay (luciferase reporter); format: cell-based; conditions: 5 μM, 0.5 μg LPS, 24 h induction; potent as SC-514
Method: Cells were transfected by electroporation with NF-κB reporter plasmid. After selection, the cells were harvested, and the luciferase activities were measured and normalized. 5 μM GB111-NH2 inhibited activity of NF-κB reporter in OCI-Ly 19 cells induced by 0.5 μg LPS (24 h induction). 10 μM SC-514, a specific suppressor of NF-κB activity, was used as positive control.

[3] = tested on: cathepsins B, L and S; assay: Cathepsin activity in lysates of patients' cells and hematological malignancy cell lines, GB123 labeling; format: cell-based, human
Method: Cell lysates from hematological malignancies patients were pretreated with vehicle, or a cathepsin inhibitor GB111-NH2 for 0.5 hour, then labeled by addition of 1 μmol/L GB123 probe for 1 hour. Equal amounts of protein were separated and visualized by scanning of the gel with a Typhoon flatbed laser scanner. Each lane was taken from a different patient. MZL-Marginal zone lymphoma, CLL-chronic lymphocytic leukemia, DLBCL-Diffuse large B-cell lymphoma.
Crude detergent lysates from cells that were pretreated with either cathepsin inhibitor GB111-NH2 or with control DMSO; vehicle for 20 minutes and then labeled by addition of 1 μmol/L GB123 probe for 1 hour. Equal amounts of protein (see Coomassie) were separated and visualized by scanning of the gel with a Typhoon flatbed laser scanner.
To verify activity dependent labeling, indicated samples were pre-incubated with GB111-NH2, a potent cathepsin inhibitor, prior to GB123 labeling. After incubation with GB123, a fluorescent scan of SDS-PAGE was done. Cathepsin activity was detected in lysates of cells from human Chronic lymphocytic leukemia (CLL) and Diffuse large B-cell lymphoma (DLBCL) patients as well as healthy population (FIG. 13).

[4] = tested on: A549, HepG2, U87, and Hacat cells; assay: Cell viability assay (methylene blue, 72 hours); format: cell-based
Method: The cells were incubated with compounds at indicated concentrations for 72 hours at 37° C. and then fixed by 2.5% glutaraldehyde for 1 hour at room temperature and stained with methylene blue. Growth was compared to vehicle-treated cells designated as 100%.

[5] = tested on: blood cells isolated from peripheral blood and bone marrow of CLL patients; assay: Annexin V staining and cathepsin S activity in blood cells of CLL patients; format: cell-based, human
Method: FIGS. 14A-14D are bar graphs and images presenting the inhibition of cathepsins induces apoptosis in OCI-Ly19 cells. (14A) Caspase-3 activation; (14B) FACS analysis of stained cells with anti-Annexin V; (14C) Mononuclear cells from CLL patients were isolated by FICOL, treated with 5 uM GB111-NH2 for 1 hour and stained with anti-Annexin V; and (14D) labeled crude detergent lysates.
The ability of GB111-NH2 to promote lymphoma cell death was examined. […] Cathepsin S activity in these cells was initially high and was reduced to 40% (+10%).

[6] = tested on: B16-F10 tumors; assay: Resistant B16-F10 melanoma tumor-bearing mice; format: in vivo; conditions: combination of GB111-NH2 (30 mg/kg) and anti PD-1 (100 μg/dose), every 4 days from day 5
Method: A sensitive IT treatment model, D4M tumors and, a more resistant model, IT B16-F10 tumor Cells were injected subcutaneously (SC) to the back of the mice and their growth was measured continuously by caliper. Anti PD-1 was administered intra peritoneally (IP) twice, a few days after the tumor could be palpated, and on indicated days and doses as described in the methods, changes in tumor volume were measured during the experiment (FIG. 4A).
To determine the cathepsin activity in both models, one day prior to sacrifice, GB123 (a fluorescent cathepsin activity-based probe) was administered IV, and tumors were harvested for further biochemical examination. Tumor tissue was subjected to fluorescence-activated cell sorting (FACS) analysis to determine the percentage of tumor associated macrophages (TAMs) that express high cathepsin activity.
The effect of the inhibition of cathepsin activity on the resistance to IT was examined using the resistant B16-F10 tumor-bearing mice with IT (anti-PD-1), GB111-NH2 (cathepsin inhibitor), or their combinations. The B16-F10 tumor-bearing mice were treated every 4 days, starting on day 5 after cell inoculation with anti PD-1 (100 μg/dose), GB111-NH2 (30 mg/kg) or their combinations; IT was given a day before GB111-NH2 (a group of GB111-NH2 first and IT a day later was included). […] In addition, survival plots were generated (FIG. 6B).

[7] = tested on: CD74 in OCI-Ly3 and OCI-Ly19; assay: CD74 expression by Western blot and FACS; format: cell-based
Description: The CD74 expression was examined by Western blot (WB) and FACS in OCI-Ly3 and OCI-Ly19 treated with GB111-NH2, LPS or LPS pretreated with GB111-NH2.

[8] = tested on: endogenous cathepsin activity (cathepsin L/B) in lung cancer A549 cells; assay: Cathepsin inhibition in intact A549 cells, residual activity labeled with GB123; format: cell-based; conditions: for IC50: 1 hour at 37° C., FIG. 9B
Method: The ability of MGB to penetrate cells and inhibit endogenous cathepsin activity was tested in lung cancer A549 cells. This model (lung cells) was chosen since corona virus is known to infect the respiratory system. Intact cells were treated with inhibitors and the residual activity was determined by GB123. Inhibition was detected on SDS-PAGE Potent inhibitors reduce the residual activity and as a result, a reduction in fluorescently labeled cathepsins is seen (FIG. 9A). The cathepsin activity was quantification and IC50 curves were plotted.

[9] = target: Recombinant cathepsin B (rCatB) (Homo sapiens, UniProt P07858); assay: Competitive inhibition of recombinant cathepsin B, residual activity labeled with GB123, SDS PAGE; format: biochemical; conditions: fluorescent SDS-PAGE, FIG. 8C
Method: (§1) Recombinant cathepsin B and L (rCatB and rCatL, respectively) were incubated for 45 minutes at 37° C. with 1 μl of increasing concentrations of cathepsin inhibitors (GB111-NH2 or MGB, respectively), residual cathepsin activity was labeled by addition of 1 μM of GB123 fluorescent activity-based probe for 45 minutes at 37° C., sample buffer was added for 2 min and the sample was boiled at 100° C. for 2 minutes. Equal amount of each sample was separated by a 12.5% SDS PAGE, this experiment was repeated 3 times. The gel was scanned for fluorescence by a Typhoon scanner. The bands were quantified by ImageJ software and then IC50 curves were generated from triplicate experiment by Prism-GraphPad software.

[10] = target: Recombinant cathepsin L (rCatL) (Homo sapiens, UniProt P07711); assay: Competitive inhibition of recombinant cathepsin L, residual activity labeled with GB123, SDS PAGE; format: biochemical; conditions: fluorescent SDS-PAGE, FIG. 8C
Method: as §1

[11] = tested on: endogenous cathepsin activity; assay: Endogenous inhibition of cathepsin activity, ACE2-ab-MGB compared to MGB (FIG. 10); format: cell-based; conditions: FIG. 10A-10B
Method: 2.5*10^5 cells per well (A549, U87 or HepG2), were seeded in 6 well plates one day before incubation with indicated concentrations of inhibitors (GB111-NH2 or MGB, respectively) for 1 hour at 37° C. Residual cathepsin activity was labeled by the addition of 2 μM of GB123 for 2 hours at 37° C. Sample buffer was added and samples were boiled at 100° C. for 10 min. Equal protein amounts of each sample were resolved by a 12.5% SDS PAGE. a) Gels were scanned for fluorescence by a Typhoon scanner. b) The gel bands were quantified using ImageJ software and IC50 curves were generated from triplicate experiments using Prism-GraphPad software.

Chain of Recombinant cathepsin L (rCatL) (P07711 114-333, species assumed): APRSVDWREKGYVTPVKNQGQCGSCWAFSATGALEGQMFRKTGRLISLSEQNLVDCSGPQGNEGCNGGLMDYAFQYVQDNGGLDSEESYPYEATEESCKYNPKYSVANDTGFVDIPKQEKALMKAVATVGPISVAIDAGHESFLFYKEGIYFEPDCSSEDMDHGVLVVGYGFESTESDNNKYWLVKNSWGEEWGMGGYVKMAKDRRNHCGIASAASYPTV

Row | SMILES | increase in caspase-3 activity ([1]; OCI-Ly19, 24 hours post treatment) [fold] | increase in Annexin V staining ([1]; OCI-Ly19, treated for 1 hour) [fold] | LPS-induced NF-κB transcriptional activity [2] | cathepsin activity in OCI-Ly19 cells ([3]; NF-κB reporter cells treated with LPS) | cathepsins activity ([3]; patients' cells and lymphoma cell lines, pretreatment before GB123 labeling) | cell viability ([4]; even at low concentrations as 1 μM) | Annexin V staining ([5]; 5 uM for 1 hour, p value 0.016) | Cathepsin S activity, reduced to ([5]; CLL patients' cells) [%] | Tumor volume [6] | surface expression of CD74 (FACS) [7] | potency relative to MGB [8] | IC50 [8] [µM] | cell viability ([4]; even at a concentration of 5 μM) | inhibition of rCatB [9] | inhibition of rCatL [10] | IC50 [11] [µM]
1 | Cc1cccc(C)c1C(=O)OCC(=O)[C@H](CCCCN)NC(=O)[C@H](Cc1ccccc1)NC(=O)OCc1ccccc1 [GB111-NH2] | 4.5 | 2.5 | suppressed LPS-induced NF-κB transcriptional activity | blocked cathepsin activity | abolished cathepsins activity | reduced cell viability significantly | increased Annexin V staining | 40 | significantly smaller tumors | reduces the surface expression of CD74 | over 200 fold | 0.006 | – | – | – | –
2 | Cc1cccc(C)c1C(=O)OCC(=O)[C@H](CCCCN)NC(=O)[C@H](Cc1ccccc1)NC(=O)[C@H](Cc1ccccc1)NC(=O)CCCCCN1C(=O)C=CC1=O [MGB] | – | – | – | – | – | – | – | – | – | – | – | 1.9 | safe to cells | inhibits | inhibits | 1.7 ± 0.6
